The values that follow come from patent US9682930B2, “Rheumatoid arthritis treatment” (Avexxin AS, priority 2011, dated 2017).

SMILES strings stand for the structures. “Also recorded” adds a separate entry of the source.

Data set [1] relates to PGE2 production in SW982 cells. The experiment in a line: TNF induced PGE2 production in SW982 cells (EIA/ELISA). The format is cell-based. The settings on record: for Fold change 1 (PGE2) / Fold change 2 (PGE2) / Mean fold change (PGE2): relative to Ctrl. The method, then: PGE2 production was monitored by ELISA. Those cells receiving treatment underwent reincubation (prior to stimulation) with either Compound 1 (AVX001) or Compound 2 (AVX002) for 2 hours.
FIGS. 3A and 3B show the determination of IC50 values for Compound 1 and Compound 2 inhibition of TNF induced PGE2 production in SW982 cells. […] corresponds to the PGE2 level induced with TNFα in combination with ethanol after incubation for 24 hours.
(§1) The Cell Culture SW982 model cell line at a confluent or spheroid state (Wada Y, 2005) was used since gene expression and generation of proinflammatory cytokines resemble RA-derived synovial fibroblast-like cells.
(§2) For stimulation experiments 0.5 mL of a cell suspension (5-7×10^5 cells/mL) were seeded inside the inner wells of 48-well plates. The outer wells were filled with 0.5 mL PBS. For nearly confluent populations, cells were incubated for one day (37° C., 5% CO2). In order to yield post-confluent cells, plates were left in the incubator for 3 days. After this incubation time, 300 μL of the supernatant was removed and replaced by 50 μL of stimulation medium.
(§3) Inhibition was performed in a similar manner as the stimulation. After seeding, incubation and replacement of the medium by 200 μL 0.5% FBS in DMEM, 50 μL of the particular inhibitor solution was added (Table 1). After 2 hours at 37° C., 50 μL of the supernatant was removed and replaced by the three stimulants described above.
Samples and controls were slowly thawed and diluted (between 1:1 and 1:2500) in the standard diluent. The maximal dilution was 1:10 for one step. That is why several intermediate dilutions were prepared. In the beginning all values were determined from duplicates. After having minimized technical errors, samples were only analyzed as individuals. All further steps, except for some minor corrections, were performed according to the manufacturer's recommendations as can be found in the manual of the EIA kit. In order to optimize the results, the incubation time of the alkaline phosphatase substrate was prolonged by 15 minutes. During the incubation, the plates were kept in the dark. An example of the arrangements of the samples and controls is illustrated in the appendix. The read-out was carried out with a Multiscan plate reader (Ascent Labsystems) at wavelengths of 414 and 595 nm after 10 seconds shaking at 120 rpm. The corresponding software to obtain the data was the Ascent software for Multiscan, Version 2.4.1.
SW982 cells were stimulated with TNF for various lengths ranging from 12-48 hours.
Background: An ELISA detects its analyte on a solid surface through an enzyme-linked reagent.

Data set [2] relates to arachidonic acid (AA) release in SW982 cells. Put plainly: TNF-induced arachidonic acid (AA) release in SW982 cells. The format is cell-based. On the procedure: as §1, §2, §3
We evaluted inhibition in SW982 cells by analyzing arachidonic acid (AA) release in response to TNF with or without inhibitor pre-treatment. […] The inhibitory effect of Compound 2 was compared to that of ATK and SB203580 (FIG. 1b).

Data set [3] relates to ESE-1 mRNA expression in SW982 cells. The experiment in a line: TNF-induced ESE-1 mRNA expression in postconfluent SW982 cells. In kind it is cell-based. The settings on record: 2 hours preincubation, 6 hours 10 ng/ml TNF. The method, then: The cells were starved in 0% FCS-DMEM overnight before experimental treatment consisting of 2 hours preincubation of inhibitors followed by 6 hours stimulation with 10 ng/ml TNF
As a control, the NF-kB inhibitor BAY-7082 is included.

The test system of data set [4] is IL-8 expression in SW982 cells. Put plainly: Quantitative RT-PCR of IL-8 expression in TNF stimulated SW982 cells. The settings on record: TNF 24 hrs. In kind it is cell-based. On the procedure:
(§4) The expression of COX2, MMP and IL-8, both known to be central in inflammation and/or joint destruction was evaluated by quantiative RT-PCR. SW 982 cells were seeded at a density of 0.1×10^6 cells/well in a 6-well format and then serum-starved after reaching 2-days post confluency. Cells were preincubated with or without inhibitors for 2 hrs prior to treatment in absence or presence of TNF for 24 hrs. The fold-difference in expression of target inflammatory genes relative to an endogenous control (GAPDH) was determined using ΔΔCt method (ΔΔCt=Cttarget−CtGAPDHt)treated−(Cttarget−CtGAPDH)untreated. Mean±SD of 3 separate experiments.

In data set [5] the test system is COX2 expression in SW982 cells. The experiment in a line: Quantitative RT-PCR of COX2 expression in TNF stimulated SW982 cells. Conditions: TNF 24 hrs. The format is cell-based. On the procedure:
as §4

Data set [6] relates to MMP3 expression in SW982 cells. Put plainly: Quantitative RT-PCR of MMP expression in TNF stimulated SW982 cells. In kind it is cell-based. The settings on record: 2 hrs preincubation, TNF 24 hrs. On the procedure: as §4
The test system of data set [7] is collagen-induced arthritis. Put plainly: Mouse model of collagen-induced arthritis (CIA), arthritis index. In kind it is in vivo, male DBA/1 mice. Conditions: CIA mice, treatment from Day 28 for 14 days, FIG. 7. The method, then: CIA was induced in male DBA/1 mice (except naive group) by immunization with 0.1 mL emulsion containing an equal volume of bovine collagen solution (2 mg/mL) and Freund's Complete Adjuvant antigen solution at the tail base. The first injection was given on Day 0 and the second injection as booster was given on Day 21. Treatment was started on Day 28 and continued for 14 days.

The mark [8] stands for this setting: SW982 cells, 2 hrs preincubation, n = 3.
Setting [9] is: relative to GAPDH, ΔΔCt, n = 3, mean +/- SD.

As a reminder, the IC50 is the point on the concentration scale where inhibition reaches its midpoint. By inhibition is commonly meant the relative decrease from the control value, in per cent.

On to `CCCCC/C=C\C/C=C\C/C=C\C/C=C\CCCC(=O)C(F)(F)F` [ATK, reference compound], for which the “Effect on PGE2 production in response to TNF stimulation” value (“Effect on PGE2 production in response” below) in data set [1] (SW982 cells) was “reduced PGE2 production to basal levels”.

As for `CC/C=C\C/C=C\C/C=C\C/C=C\C/C=C\CCSCC(=O)C(F)(F)F` [Compound 2], the IC50 in data set [2] (TNF 10 ng/ml, inhibitor pre-treatment, read-out: IC50 for reduction of TNF-induced release of AA) is approximately 1000 nM. Further, the “Effect on AA release” value in data set [2] (TNF-induced) was “normalizes AA-release to basal level”. Further, in data set [1] (5 uM inhibitor + TNF), the “% Inhibition (PGE2)” value was found to be 107.3%, the “Mean PGE2” value is reported as 87.5, the “Fold change 1 (PGE2)” value turned out to be 0.64 and the “Fold change 2 (PGE2)” value is 0.30. The “Mean fold change (PGE2)” value in data set [1] (5 uM inhibitor + TNF) is 0.47. In data set [1] (10 uM inhibitor + TNF), the “% Inhibition (PGE2)” value worked out at 103.7%, the “Mean PGE2” value was 147.5, the “Fold change 1 (PGE2)” value turned out to be 1.34 and the “Fold change 2 (PGE2)” value was 0.38. Also, the “Mean fold change (PGE2)” value in data set [1] (10 uM inhibitor + TNF) is 0.86. Besides, the “Effect on PGE2 production in response” value in data set [1] (SW982 cells) is listed as “reduced PGE2 production to basal levels”. Moreover, in data set [1] (SW982 cells, FIG. 3, read-out: IC50 for inhibition of TNF induced PGE2 production), the IC50 was approximately 430 nM. In addition, the “Regulation of TNF-induced ESE-1 expression” value in data set [3] is given as “in a dose dependent manner; also recorded: similar, if not better, regulation of ESE-1 expression than the known NF-kB inhibitor BAY-7082”. Further, the “% Inhibition of induction of IL-8 message” value in data set [4] (setting [8]) is 53.49%. For the same compound, the “Average fold induction of IL-8 transcript, Compound 2/TNF” value in data set [4] (setting [9]) is listed as 39.21 +/− 10.76. Besides, the “% Inhibition of induction of COX2 message” value in data set [5] (setting [8]) stood at 42.22%. In data set [5] (setting [9]), the “Average fold induction of COX2 transcript, Compound 2/TNF” value was 5.40 +/− 4.32. The “% Inhibition of induction of MMP3 message” value in data set [6] is given as approximately 58%. In addition, the “Reduction of arthritis index (AI)” value in data set [7] is listed as “More Effective than ENBREL® (Etanercept) in Reducing an Arthritis Index”.

For `C[S+]([O-])c1ccc(-c2nc(-c3ccncc3)c(-c3ccc(F)cc3)[nH]2)cc1` (centres unmarked) [SB203580, reference compound], in data set [1] (10 uM inhibitor + TNF), the “Mean PGE2” value was found to be 25.6, the “Fold change 1 (PGE2)” value stood at 0.18, the “Fold change 2 (PGE2)” value is on record as 0.09 and the “Mean fold change (PGE2)” value is reported as 0.14. Besides, the inhibition at 10 µM in data set [1] (Homo sapiens, SW982, 10 uM inhibitor + TNF) came to 111%. For the same compound, in data set [1] (SW982 cells), the “Effect on PGE2 production in response” value is recorded as “depleted PGE2 levels to below basal release”.

As to `COc1ccc2c(c1)c(CC(=O)O)c(C)n2C(=O)c1ccc(Cl)cc1` [indomethasin, reference compound], in data set [3], the “Regulation of TNF-induced ESE-1 expression” value is listed as “poorer regulation of TNF induced ESE-1 expression than the control”.
